Measurements taken from ChEMBL document CHEMBL1150479, “2-(3-hydroxypropoxy)-1,25-dihydroxyvitamin D3 (ED-71), preventive and therapeutic effects on bone mineral loss in ovariectomized rats” (Bioorg Med Chem Lett, 1993).
Activity calls are given as the source filed them. No cut-off for these calls is given here.

Experiments:
[1] = molecular target: T1, Vitamin D3 receptor (Rattus norvegicus) (UniProt P13053)
T1 sequence (whole entry): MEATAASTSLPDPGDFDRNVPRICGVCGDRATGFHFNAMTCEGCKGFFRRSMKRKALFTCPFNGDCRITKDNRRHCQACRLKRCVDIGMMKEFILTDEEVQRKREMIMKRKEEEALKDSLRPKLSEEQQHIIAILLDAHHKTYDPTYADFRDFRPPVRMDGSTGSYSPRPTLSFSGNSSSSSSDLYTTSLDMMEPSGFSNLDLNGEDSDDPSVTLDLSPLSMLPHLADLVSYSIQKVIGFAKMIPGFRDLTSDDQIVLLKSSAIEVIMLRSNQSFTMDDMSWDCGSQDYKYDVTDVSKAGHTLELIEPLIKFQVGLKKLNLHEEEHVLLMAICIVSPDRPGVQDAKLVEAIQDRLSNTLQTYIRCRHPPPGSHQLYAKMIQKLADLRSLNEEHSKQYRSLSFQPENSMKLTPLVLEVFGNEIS
Description: In vitro binding potency for vitamin D receptor VDR in ovariectomized rats

Rattus norvegicus [2] = experiment: In vivo intestinal calcium absorption was determined against ovariectomized rats; Stimulation; format: functional, organism-based
[3] = molecular target: T2, Vitamin D-binding protein (Rattus norvegicus) (UniProt P04276); experiment: In vitro binding potency against vitamin D binding protein (DBP) in ovariectomized rats
T2 sequence (whole entry): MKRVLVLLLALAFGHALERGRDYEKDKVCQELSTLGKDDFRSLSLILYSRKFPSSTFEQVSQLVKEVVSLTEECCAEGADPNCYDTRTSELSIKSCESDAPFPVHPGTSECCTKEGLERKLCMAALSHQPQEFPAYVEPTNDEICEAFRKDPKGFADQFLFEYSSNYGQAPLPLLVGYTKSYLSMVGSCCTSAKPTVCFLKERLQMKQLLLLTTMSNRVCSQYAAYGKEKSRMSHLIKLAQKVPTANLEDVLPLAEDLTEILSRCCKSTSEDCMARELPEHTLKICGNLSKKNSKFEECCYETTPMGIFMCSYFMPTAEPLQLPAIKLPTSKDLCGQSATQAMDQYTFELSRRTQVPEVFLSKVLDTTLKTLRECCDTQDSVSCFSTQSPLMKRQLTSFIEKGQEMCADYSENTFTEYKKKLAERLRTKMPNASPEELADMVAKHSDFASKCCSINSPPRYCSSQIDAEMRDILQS

Rattus norvegicus [4] = experiment: In vivo bone calcium mobilization was determined against ovariectomized rats; Stimulation; format: functional, organism-based
Rattus norvegicus [5] = species on record: Rattus norvegicus; experiment: In vitro bone resorption against ovariectomized rats; Stimulation; format: functional
[6] = molecular target: T1, Vitamin D3 receptor (Rattus norvegicus); experiment: In vitro binding potency for vitamin D receptor VDR in 8 ovariectomized rats
Rattus norvegicus [7] = species on record: Rattus norvegicus; experiment: In vitro bone resorption against ovariectomized rats; Weak stimulation; format: functional

Row | SMILES | Binding potency [1] | Absorption (Rattus norvegicus [2]) | Binding potency [3] | Mobilization (Rattus norvegicus [4]) | Resorption (Rattus norvegicus [5]) | Binding potency [6] | Resorption (Rattus norvegicus [7])
1 | C=C1/C(=C\C=C2/CCC[C@]3(C)[C@@H]([C@H](C)CCCC(C)(C)O)CC[C@@H]23)C[C@@H](O)C[C@@H]1O | 1 | Active | 1 | Active | Active |  | 
2 | C=C1/C(=C\C=C2/CCC[C@]3(C)C([C@H](C)CCCC(C)(C)O)CC[C@@H]23)C[C@@H](O)[C@@H](OCCCO)[C@@H]1O (stereo not given in full) |  | Active | 2.7 | Active |  | 1 | Partially active
